The text below walks through data of patent US20070117818A1, “Pyrimidinone compounds useful as kinase inhibitors” (priority 2004, published 2007).

The target in the assay is T1, hYAK3 (Homo sapiens, UniProt O43781).
T1 construct: made in house; host or cells: baculovirus expression system in Sf9 cells
T1 sequence (O43781 124-526): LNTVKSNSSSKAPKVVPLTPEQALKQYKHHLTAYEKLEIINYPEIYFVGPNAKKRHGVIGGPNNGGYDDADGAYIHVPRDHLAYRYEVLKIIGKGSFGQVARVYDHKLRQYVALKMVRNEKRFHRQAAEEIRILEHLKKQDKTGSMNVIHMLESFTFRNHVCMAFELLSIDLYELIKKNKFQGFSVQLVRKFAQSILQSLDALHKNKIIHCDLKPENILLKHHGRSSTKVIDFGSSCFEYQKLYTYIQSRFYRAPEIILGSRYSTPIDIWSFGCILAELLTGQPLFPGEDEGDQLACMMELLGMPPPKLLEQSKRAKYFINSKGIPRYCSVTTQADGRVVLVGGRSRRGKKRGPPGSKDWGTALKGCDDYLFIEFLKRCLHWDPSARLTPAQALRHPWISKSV
Kind of assay: YAK3 Scintillation Proximity Assay using Ser164 of myelin basic protein as phosphoacceptor (kinase assay of purified hYAK3). To be noted: purified GST-hYak3-His6 (aa 124-526), 0.001 mM ATP, 4 μM Ser164 peptide, 2 hours at room temperature; pIC50 = −log10(IC50). The assay is classed as biochemical. Here is the method:
Substrate phosphorylation assays were carried out as follows:
YAK3 Scintillation Proximity Assays Using Ser164 of Myelin Basic Protein as the phosphoacceptor
The source of Ser164 substrate oeptide The biotinylated Ser164, S164A peptide (Biotinyl-LGGRDSRAGS*PMARR-OH), sequence derived from the C-terminus of bovine myelin basic protein (MBP) with Ser162 substituted as Ala162, was purchased from California Peptide Research Inc. (Napa, Calif.), and its purity was determined by HPLC. Phosphorylation occurs at position 164 (marked S* above). The calculated molecular mass of the peptide was 2166 dalton. Solid sample was dissolved at 10 mM in DMSO, aliquoted, and stored at −20° C. until use.
hYAK3: Glutathione-S-Transferase (GST)-hYak3-His6 containing amino acid residues 124-526 of human YAK3 (aa 124-526 of SEQ ID NO 2. in U.S. Pat. No. 6,323,318) was purified from baculovirus expression system in Sf9 cells using Glutathione Sepharose 4B column chromatography followed by Ni-NTA-Agarose column chromatography. Purity greater than 65% typically was achieved. Samples, in 50 mM Tris, 150 mM NaCl, 10% glycerol, 0.1% Triton, 250 mM imidazole, 10 mM β-mercapto ethanol, pH 8.0. were stored at −80° C. until use.
Kinase assay of purified hYAK3: Assays were performed in 96 well (Costar, Catalog No. 3789) or 384 well plates (Costar, Catalog No. 3705). Reaction (in 20, 25, or 40 μl volume) mix contained in final concentrations 25 mM Hepes buffer, pH 7.4; 10 mM MgCl2; 10 mM β-mercapto ethanol; 0.0025% Tween-20; 0.001 mMATP, 0.1 μCi of [γ-^33P]ATP; purified hYAK3 (7-14 ng/assay; 4 nM final); and 4 μM Ser164 peptide. Compounds, titrated in DMSO, were evaluated at concentrations ranging from 50 μM to 0.5 nM. […] Reactions were incubated for 2 hours at room temperature and were stopped by a 75 ul addition of 0.19 μg Streptavidin Scintillation Proximity beads (Amersham Pharmacia Biotech, Catalog No. RPNQ 0007) in PBS, pH 7.4, 10 mM EDTA, 0.1% Triton X-100, 1 mM ATP. Under the assay conditions defined above, the Km(apparent) for ATP was determined to be 7.2+-2.4 μM.
One may read the IC50 as the concentration that inhibits the measured activity by half. High values mean weaker potency in that assay, low ones greater potency in that assay. For the compound `NS(=O)(=O)c1cccc(Nc2nc(-c3ccc4nc(NC(=O)c5cccs5)[nH]c4c3)cc(=O)[nH]2)c1` [Ig, N-[5-(2-{[3-(Aminosulfonyl)phenyl]amino}-6-oxo-1,6-dihydro-4-pyrimidinyl)-1H-benzimidazol-2-yl]-2-thiophenecarboxamide], the IC50 is 1.02 to 10 nM.
Take `O=C(Nc1nc2ccc(-c3cc(=O)[nH]c(NCCc4ccc(Cl)cc4Cl)n3)cc2[nH]1)c1cccs1` [Ip, N-[5-(2-{[2-(2,4-Dichlorophenyl)ethyl]amino}-6-oxo-1,6-dihydro-4-pyrimidinyl)-1H-benzimidazol-2-yl]-2-thiophenecarboxamide]: the IC50 is 102 to 1000 nM.
As for `COCCNc1nc(-c2ccc3nc(NC(=O)c4cccs4)[nH]c3c2)cc(=O)[nH]1` [Il, N-[5-(2-{[2-(Methyloxy)ethyl]amino}-6-oxo-1,6-dihydro-4-pyrimidinyl)-1H-benzimidazol-2-yl]-2-thiophenecarboxamide], the figure is 10.2 to 100 nM.
